The test deals with T1, recombinant human GR (Homo sapiens, UniProt P04150).
T1 construct: purchased Panvera/Invitrogen P2812 (kit P2893)
T1 sequence (P04150 1-777): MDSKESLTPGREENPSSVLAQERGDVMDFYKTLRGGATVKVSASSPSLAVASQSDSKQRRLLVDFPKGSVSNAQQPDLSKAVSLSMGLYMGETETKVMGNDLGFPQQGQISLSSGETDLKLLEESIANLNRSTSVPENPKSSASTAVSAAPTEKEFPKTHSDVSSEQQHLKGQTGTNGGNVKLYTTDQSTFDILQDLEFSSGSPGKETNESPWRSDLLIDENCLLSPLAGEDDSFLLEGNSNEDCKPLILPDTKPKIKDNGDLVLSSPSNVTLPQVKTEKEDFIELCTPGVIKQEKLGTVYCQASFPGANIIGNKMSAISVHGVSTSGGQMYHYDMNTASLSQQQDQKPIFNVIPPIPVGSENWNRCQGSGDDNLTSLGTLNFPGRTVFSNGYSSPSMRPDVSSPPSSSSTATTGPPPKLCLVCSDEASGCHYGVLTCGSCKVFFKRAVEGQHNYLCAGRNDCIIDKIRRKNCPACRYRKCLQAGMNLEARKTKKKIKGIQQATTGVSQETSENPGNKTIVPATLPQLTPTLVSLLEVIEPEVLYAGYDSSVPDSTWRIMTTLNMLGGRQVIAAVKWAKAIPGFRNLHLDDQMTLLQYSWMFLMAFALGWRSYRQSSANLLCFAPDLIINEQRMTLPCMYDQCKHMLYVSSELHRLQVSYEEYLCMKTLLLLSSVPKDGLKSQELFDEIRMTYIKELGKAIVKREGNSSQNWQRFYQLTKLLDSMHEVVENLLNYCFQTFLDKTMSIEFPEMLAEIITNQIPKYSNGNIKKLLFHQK
Description: Human Glucocorticoid Receptor (GR) Assay (fluorescence polarization, Panvera/Invitrogen kit). Conditions: GS Red tracer, 2 hours at room temperature, 100% control 10 μM Dexamethasone, read-out: Inhibition of GR binding, IC50. As for the experimental part:
Human Glucocorticoid Receptor (GR) Assay The assay is based on a commercial kit from Panvera/Invitrogen (Part number P2893). The assay technology is fluorescence polarization. The kit utilises recombinant human GR (Panvera, Part number P2812), a Fluoromone™ labelled tracer (GS Red, Panvera, Part number P2894) and a Stabilizing Peptide 10× (Panvera, Part number P2815). The GR and Stabilizing Peptide reagents are stored at −70° C. while the GS Red is stored at −20° C. Also included in the kit are 1M DTT (Panvera, Part number P2325, stored at −20° C.) and GR Screening buffer 10× (Panvera, Part number P2814, stored at −70° C. initially but once thawed stored at room temperature). Avoid repeated freeze/thaws for all reagents. The GR Screening buffer 10× comprises 100 mM potassium phosphate, 200 mM sodium molybdate, 1 mM EDTA and 20% DMSO. Test compounds (1 μL) and controls (1 μL) in 100% DMSO were added to black polystyrene 384-well plates (Greiner low volume black flat-bottom, part number 784076). 0% control was 100% DMSO and 100% control was 10 μM Dexamethasone. Background solution (8 μL; assay buffer 10×, Stabilizing Peptide, DTT and ice cold MQ water) was added to the background wells. GS Red solution (7 μL; assay buffer 10×, Stabilizing Peptide, DTT, GS Red and ice cold water) was added to all wells except background wells. GR solution (7 μL; assay buffer 10×, Stabilizing Peptide, DTT, GR and ice cold water) was added to all wells. The plate was sealed and incubated in a dark at room temperature for 2 hours. The plate was read in an Analyst plate reader (LJL Biosystems/Molecular Devices Corporation) or other similar plate reader capable of recording fluorescence polarization (excitation wavelength 530 nm, emission wavelength 590 nm and a dichroic mirror at 561 nm).

The structures appear in SMILES notation.

Regarding `CCC[C@@H]1O[C@@H]2C[C@H]3[C@@H]4CCC5=Cc6c(cnn6-c6ccc(F)c(CN7CCC(O)CC7)c6)C[C@]5(C)[C@H]4[C@@H](O)C[C@]3(C)[C@]2(C(=O)CO)O1` [Example 9, 1-[(4aR,4bS,5S,6aS,6bS, 8R,9aR,10aS,10bS)-1-{4-fluoro-3-[(4-hydroxypiperidin-1-yl)methyl]phenyl}-5-hydroxy-4a,6a-dimethyl-8-propyl-4,4a,4b,5,6,6a,9a,10, 10a,10b,11,12-dodecahydro[1,3]dioxolo [3′,4′]cyclopenta [1′,2′:5,6]naphtho[1,2-f]indazol-6b(1H)-yl]-2-hydroxyethanone trifluoroacetic acid], the IC50 came out at 0.021 µM.

On to `CCC[C@H]1O[C@@H]2C[C@H]3[C@@H]4CCC5=Cc6c(cnn6-c6ccc(F)c(CN7CCSCC7)c6)C[C@]5(C)[C@H]4[C@@H](O)C[C@]3(C)[C@]2(C(=O)CO)O1` [Example 8, 1-[(4aR,4bS,5S,6aS,6bS, 8S,9aR,10aS,10bS)-1-[4-fluoro-3-(thiomorpholin-4-ylmethyl)phenyl]-5-hydroxy-4a,6a-dimethyl-8-propyl-4,4a,4b,5,6,6a,9a,10, 10a,10b,11,12-dodecahydro[1,3]dioxolo [3′,4′]cyclopenta [1′,2′:5,6]naphtho[1,2-f]indazol-6b(1H)-yl]-2-hydroxyethanone trifluoroacetic acid], for which the IC50 amounted to 0.016 µM.

Turning to `CCC[C@H]1O[C@@H]2C[C@H]3[C@@H]4CCC5=Cc6c(cnn6-c6ccc(F)c(CNCCCO)c6)C[C@]5(C)[C@H]4[C@@H](O)C[C@]3(C)[C@]2(C(=O)CO)O1` [Example 12, 1-[(4aR,4bS,5S,6aS,6bS, 8S,9aR,10aS,10bS)-1-(4-fluoro-3-{[(3-hydroxypropyl)amino]methyl}phenyl)-5-hydroxy-4a,6a-dimethyl-8-propyl-4,4a,4b,5,6,6a,9a,10, 10a,10b,11,12-dodecahydro[1,3]dioxolo [3′,4′]cyclopenta [1′,2′:5,6]naphtho[1,2-f]indazol-6b(1H)-yl]-2-hydroxyethanone trifluoroacetic acid], the IC50 was 0.076 µM.

Consider `CCC[C@H]1O[C@@H]2C[C@H]3[C@@H]4CCC5=Cc6c(cnn6-c6ccc(F)cc6)C[C@]5(C)[C@H]4[C@@H](O)C[C@]3(C)[C@]2(C(=O)CO)O1` [Example 19, 1-[(4aR,4bS,5S,6aS,6bS,8S,9aR,10aS,10bS)-1-(4-Fluorophenyl)-5-hydroxy-4a,6a-dimethyl-8-propyl-4,4a,4b,5,6,6a,9a,10,10a,10b,11,12-dodecahydro[1,3]dioxolo-[3′,4′]cyclopenta[1′,2′:5,6]naphtho[1,2-f]indazol-6b(1H)-yl]-2-hydroxyethanone], for which the IC50 is 0.0027 µM.

On to `CCC[C@@H]1O[C@@H]2C[C@H]3[C@@H]4CCC5=Cc6c(cnn6-c6ccc(F)c(CNCCCO)c6)C[C@]5(C)[C@H]4[C@@H](O)C[C@]3(C)[C@]2(C(=O)CO)O1` [Example 11, 1-[(4aR,4bS,5S,6aS,6bS, 8R,9aR,10aS,10bS)-1-(4-fluoro-3-{[(3-hydroxypropyl)amino]methyl}phenyl)-5-hydroxy-4a,6a-dimethyl-8-propyl-4,4a,4b,5,6,6a,9a,10, 10a,10b,11,12-dodecahydro[1,3]dioxolo [3′,4′]cyclopenta [1′,2′:5,6]naphtho[1,2-f]indazol-6b(1H)-yl]-2-hydroxyethanone trifluoroacetic acid], for which the IC50 came to 0.034 µM.

For `CCC[C@@H]1O[C@@H]2C[C@H]3[C@@H]4CCC5=Cc6c(cnn6-c6ccc(F)c(CN7CCN(C)CC7)c6)C[C@]5(C)[C@H]4[C@@H](O)C[C@]3(C)[C@]2(C(=O)CO)O1` [Example 4, 1-[(4aR,4bS,5S,6aS,6bS, 8R,9aR,10aS,10bS)-1-{4-fluoro-3-[(4-methylpiperazin-1-yl)methyl]phenyl}-5-hydroxy-4a,6a-dimethyl-8-propyl-4,4a,4b,5,6,6a,9a,10, 10a,10b,11,12-dodecahydro[1,3]dioxolo [3′,4′]cyclopenta [1′,2′:5,6]naphtho[1,2-f]indazol-6b(1H)-yl]-2-hydroxyethanone trifluoroacetic acid], the IC50 worked out at 0.021 µM.

For the origin of these results see US20110160167A1, “Steroid Derivatives Acting As Glucocorticosteroid Receptor Agonists” (AstraZeneca AB, priority 2007, published 2011).
